The text below walks through data of patent US9862697B2, “pH-sensitive fluorescent sensors for biological amines” (The Curators of the University of Missouri, priority 2013, dated 2018).

A short description of data set [1]: pH titration of sensor (absorbance and fluorescence monitored), pKa. It is filed as physicochemical. The note with it: buffered solution of the sensor; unbound sensor; pH and fluorescence intensity data fit to a pH isotherm. How it is done:
(§1) The spectroscopic properties of several exemplary inventive sensors have been examined, along with the starting compound 1, as 7-hydroxycoumarins are well known for their pH-sensitivity. First, the acidity of the sensors was discerned by performing pH titrations where aliquots of aqueous HCl were added to a buffered solution of the sensor and the absorbance and fluorescence were monitored. The pKa of the pH-sensitive unit is related to the donating ability of the sulfonamide substituent. ES517 has a dimethylamino-substituent on the sulfonamide which is the best electron-donor into the sulfonyl motif. This makes deprotonation of the N—H proton located at the 7-position of the coumarin core the least favorable and therefore the least acidic. The pH and fluorescence intensity data were fit to a pH isotherm and the pKa was determined to be 6.3. As the donating ability of the sulfonamide substituent into the sulfonyl motif worsened, the acidity of the N—H proton located at the 7-position of the coumarin core increased. The aromatic substituents are the least electron donating substituents into the sulfonyl motif which explains the greater acidity. By using a single coupling reaction, the pKa of the sensor may be tuned to fit the parameters of the experiment.

Data set [2] can be described thus: Spectroscopic properties of unbound sensors. The note with it: for λem (ex: 488 nm): excitation 488 nm; for λmax (G-) / λmax (GH): unbound sensor; for λmax (G-): deprotonated form G-; for λmax (GH): protonated form GH. The arrangement: λmax (GH) / λmax (G-): unit not given here. It is filed as physicochemical. How it is done: as §1
(§2) Table 1 summarizes the spectroscopic properties of the tested compounds in pH varying environments, mimicking the vesicular and synaptic cleft conditions.

Data set [3] in a line: Fluorescence at pH 7.4 vs 5.0 of sensor saturated with glutamate. As for the experimental part: Next, the sensor was saturated with 300 mM glutamate in order to mimic vesicular conditions. The fluorescence intensity of the bound complex was then monitored between the pH values of 5 and 7.4, the acidities associated with the synaptic vesicle and synaptic cleft, respectively. An excitation wavelength of 488 nm was used because it is far enough to the red to ensure that only the bound, deprotonated sensor was excited. It is also a common wavelength used in fluorescence microscopy cell studies. The fluorescence intensity increased for all sensors upon basification from pH 5 to 7.4, however the sensors with the highest pKa values gave the greatest enhancements.
as §2

Data set [4] can be described thus: Binding study (fluorescence titration) of ES517 with glutamate. How it is done: While low, this binding constant is believed to be preferred for reversible binding due to the high millimolar concentration of glutamate in a vesicle (˜300 mM).
A short description of data set [5]: pKa and absorbance of the bound sensor (ES517 saturated with glutamate) over a wide pH range. Format: physicochemical. An excerpt:
ES517 was saturated with glutamate and the spectroscopic properties measured over a wide pH range. The protonated form of the bound sensor (FIG. 4, structure B) absorbed at 368 nm. […] The 428 nm band was assigned to the unbound deprotonated form of the sensor (structure C). The 458 nm band therefore represents the bound, deprotonated sensor (structure D). The plot of pH vs. intensity was fit to a pH isotherm and the pKa determined to be 6.3.

Data set [6] in a line: Binding study (fluorescence titration) of ES517 with dopamine.
Data set [7] can be described thus: Binding study (fluorescence titration) of ES517 with GABA.
Data set [8] is described as follows: Binding study (fluorescence titration) of ES517 with glycine.
The nature of data set [9]: Fluorescence at pH 7.4 vs 5.0 of ES517 saturated with GABA. As to conditions: ES517 20 μM saturated with 300 mM GABA. An excerpt:
(§3) The ES517 was further analyzed for binding and spectroscopic properties with the common neurotransmitters other than glutamate released upon exocytosis. […] The aromatic neurotransmitters dampened the fluorescence turn-on response of the inventive sensors due to the electron-rich nature of catecholamines (norepinephrine and dopamine) and indoleamines (serotonin).

A short description of data set [10]: Fluorescence at pH 7.4 vs 5.0 of ES517 saturated with norepinephrine. As to conditions: ES517 20 μM saturated with 100 mM norepinephrine.
Text: as §3

The nature of data set [11]: Binding study (fluorescence titration) of ES517 with serotonin.
Data set [12] is described as follows: Binding study (fluorescence titration) of ES517 with norepinephrine.
The nature of data set [13]: Fluorescence at pH 7.4 vs 5.0 of ES517 saturated with glycine. The note with it: ES517 20 μM saturated with 300 mM glycine.
Text: as §3

Data set [14] can be described thus: Fluorescence at pH 7.4 vs 5.0 of ES517 saturated with dopamine. The note with it: ES517 20 μM saturated with 100 mM dopamine.
Text: as §3

Setting [15] is: sensor saturated with 0.3M glutamate, intensities monitored at pH 5.0 and 7.4.
Where [16] appears, read: ES517 20 μM, buffered, pH 7.4, ±10% error.
Where [17] appears, read: fluorescence enhancement upon binding at pH 7.4, λem = 517 nm.

One may read the pKa as the negative logarithm of the acid dissociation constant.

Each structure is given as a SMILES string. Marks after values point to notes of the source that are not given here.

Take `CS(=O)(=O)Nc1ccc2c(-c3ccccc3)c(C=O)c(=O)oc2c1`: the pKa in data set [1] was 5.9. Besides, in data set [2], the λem (ex: 488 nm) is 489 nm, the “λmax (G-)” value worked out at 420 and the “λmax (GH)” value is given as 365. Moreover, the “IpH 7.4/IpH 5” value in data set [3] (setting [15]) is on record as 5.5.
Consider `O=Cc1c(-c2ccccc2)c2ccc(NS(=O)(=O)c3cccs3)cc2oc1=O`, for which, in [1], the pKa amounted to 5.2. Besides, in data set [2], the λem (ex: 488 nm) is 494 nm, the “λmax (G-)” value is 416 and the “λmax (GH)” value is reported as 366. In addition, the “IpH 7.4/IpH 5” value in data set [3] (setting [15]) is on record as 2.5.
Consider `O=Cc1c(-c2ccccc2)c2ccc(O)cc2oc1=O`, for which the pKa in data set [1] was found to be 5.8. In data set [2], the λem (ex: 488 nm) stood at 468 nm, the “λmax (G-)” value is listed as 420 and the “λmax (GH)” value is listed as 368. In addition, in [3] (setting [15]), the “IpH 7.4/IpH 5” value worked out at 3.3.
For `CN(C)S(=O)(=O)Nc1ccc2c(-c3ccccc3)c(C=O)c(=O)oc2c1` [ES517], the Ka amounted to 8.6 M⁻¹ in data set [4] (glutamate, ES517 20 μM, 50 mM bis-tris propane, 50 mM Na2S2O3, 1% DMSO, pH 7.4, ±10% error); 55 M⁻¹ in data set [6] (setting [16]); 8.3 M⁻¹ in data set [7] (setting [16]); 9.2 M⁻¹ in data set [8] (setting [16]); 54 M⁻¹ in [11] (setting [16]); 49 M⁻¹ in data set [12] (setting [16]). The Isat/I0 is recorded as 12 in [4] (glutamate, fluorescence enhancement upon binding at pH 7.4, Isat from theoretical max of binding isotherm, λem = 517 nm); 10 in data set [6] (setting [17]); 27 in [7] (setting [17]); 25 in [8] (setting [17]); 0.5 in [11] (setting [17]); 14 in data set [12] (setting [17]). Moreover, in data set [4] (titration with glutamate, excitation 488 nm), the “fluorescence enhancement upon binding to glutamate” value was determined as 12 fold. Moreover, in [5], the “absorbance of protonated form of the bound sensor (structure B)” value is listed as 368 nm. In data set [5] (upon deprotonation), the “absorbance band of bound, deprotonated sensor (structure D)” value is reported as 458 nm. The “absorbance band of unbound deprotonated form of the sensor (structure C)” value in data set [5] (upon deprotonation) is listed as 428 nm. Also, the pKa in data set [1] was determined as 6.3. The “IpH 7.4/IpH 5” value in data set [9] is recorded as 11 ^d; in [10] it was 5.3 ^e; in data set [3] (ES517 20 μM saturated with 300 mM glutamate, fluorescence at pH 7.4 vs. 5.0), 12^d; in data set [3] (setting [15]), 12; in [13], 10 ^d; in data set [14], 5.5 ^e. The compound also yielded a λem (ex: 488 nm) in [2] of 498 nm. Besides, in data set [2], the “λmax (G-)” value is on record as 419. The “λmax (GH)” value in data set [2] was 368.
